Source: ChEMBL document CHEMBL6153170 (J Med Chem, 2025)
≈ marks a conversion by molar mass, not a printed value. Calls of active or inactive are those of the source. No cut-off for these calls is given here.

Legend:
B16-F10 [1] = assay: Antitumor immunity activity against mouse B16-F10 cells implanted in C57BL/6 mouse model assessed as CD3+ CD4+ T cell percentage in tumor at 20 mg/kg/day, ip administered for 14 days by flow cytometric analysis (reference value: 0.095 %); format: functional; details: time 14 day
B16-F10 [2] = assay: Antitumor activity against mouse B16-F10 cells implanted in C57BL/6 mouse model assessed as tumor growth inhibition at 20 mg/kg/day, ip administered for 14 days relative to control; format: functional; details: B16-F10, 336 h, time 14 day, read-out: TGI
[3] = biological target: T1, Protein deacetylase HDAC6 (Mus musculus) (UniProt Q9Z2V5); assay: In vivo inhibition of HDAC6 in C57BL/6 mouse model implanted with mouse B16-F10 cells assessed as increase in acetylated alpha-tubulin protein level in tumor at 20 mg/kg/day, ip administered for 14 days by Western blot analysis; format: functional, organism-based; details: time 14.0 day
T1 sequence (whole entry): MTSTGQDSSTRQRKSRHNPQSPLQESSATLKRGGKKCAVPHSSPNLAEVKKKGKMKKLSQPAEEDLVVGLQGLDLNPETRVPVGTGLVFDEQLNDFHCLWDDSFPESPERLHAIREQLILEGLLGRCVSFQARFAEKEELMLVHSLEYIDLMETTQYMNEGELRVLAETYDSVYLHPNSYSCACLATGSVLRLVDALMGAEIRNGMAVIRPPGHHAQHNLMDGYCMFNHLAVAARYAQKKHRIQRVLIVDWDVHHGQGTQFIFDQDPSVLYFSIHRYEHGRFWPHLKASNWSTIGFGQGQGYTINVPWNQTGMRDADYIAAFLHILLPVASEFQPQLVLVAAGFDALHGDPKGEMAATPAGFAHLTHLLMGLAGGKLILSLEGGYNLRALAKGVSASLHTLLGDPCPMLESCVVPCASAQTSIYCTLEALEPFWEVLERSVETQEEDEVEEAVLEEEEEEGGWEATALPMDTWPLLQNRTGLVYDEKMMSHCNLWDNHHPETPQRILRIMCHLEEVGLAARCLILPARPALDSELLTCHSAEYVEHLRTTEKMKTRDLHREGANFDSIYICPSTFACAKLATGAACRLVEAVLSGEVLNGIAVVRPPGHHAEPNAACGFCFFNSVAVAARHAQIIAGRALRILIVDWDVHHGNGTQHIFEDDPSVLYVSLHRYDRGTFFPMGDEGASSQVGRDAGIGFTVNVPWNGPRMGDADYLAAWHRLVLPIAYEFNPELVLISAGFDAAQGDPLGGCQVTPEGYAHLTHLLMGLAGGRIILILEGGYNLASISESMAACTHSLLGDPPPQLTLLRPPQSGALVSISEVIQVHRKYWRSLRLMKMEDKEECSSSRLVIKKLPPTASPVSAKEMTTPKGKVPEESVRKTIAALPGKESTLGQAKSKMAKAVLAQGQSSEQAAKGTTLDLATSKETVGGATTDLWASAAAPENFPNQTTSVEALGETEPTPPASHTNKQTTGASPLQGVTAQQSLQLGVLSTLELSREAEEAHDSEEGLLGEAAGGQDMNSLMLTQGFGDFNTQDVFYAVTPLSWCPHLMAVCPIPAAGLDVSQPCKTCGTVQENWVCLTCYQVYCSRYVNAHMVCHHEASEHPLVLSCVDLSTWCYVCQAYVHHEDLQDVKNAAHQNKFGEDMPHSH

B16-F10 [4] = assay: Antitumor immunity activity against mouse B16-F10 cells implanted in C57BL/6 mouse model assessed as CD3+ CD8+ T cell percentage in tumor at 20 mg/kg/day, ip administered for 14 days by flow cytometric analysis (reference value: 0.52 %); format: functional; details: time 14 day
[5] = In vivo inhibition of PD-L1 in C57BL/6 mouse model implanted with mouse B16-F10 cells assessed as reduction in PD-L1 protein expression in tumor at 20 mg/kg/day, ip administered for 14 days by Western blot analysis relative to control; format: functional; details: C57BL/6, B16-F10, 336 h, time 14 day
B16-F10 [6] = assay: Upregulation of acetylated histone H3 protein level in mouse B16-F10 cells at 0.1 to 2 uM incubated for 12 hrs by Western blot analysis; format: functional, cell-based; details: dose 0.1-2 µM
Jurkat [7] = assay: Upregulation of acetylated histone H3 protein level in human Jurkat T cells at 0.1 to 2 uM incubated for 12 hrs by Western blot analysis; format: functional, cell-based; details: dose 0.1-2 µM
B16-F10 [8] = assay: Effect on STAT3 expression level in mouse B16-F10 cells at 0.1 to 2 uM incubated for 24 hrs by Western blot analysis; format: functional, cell-based; details: dose 0.1-2 µM
[9] = biological target: T1, Protein deacetylase HDAC6 (Mus musculus); assay: Inhibition of HDAC6 in mouse B16-F10 cells assessed as increase in acetylated alpha-tubulin level incubated for 12 hrs by Western blot analysis; format: cell-based; details: dose 0.1-2 µM
B16-F10 [10] = assay: Effect on HDAC6 protein level in mouse B16-F10 cells at 0.1 to 2 uM incubated for 12 hrs by Western blot analysis; format: functional, cell-based; details: dose 0.1-2 µM
HepG2 = assay: cells; details: Homo sapiens, HepG2, 48 h
B16-F10 [11] = assay: cells; details: Mus musculus, B16-F10, 48 h
MCF7 = assay: cells; details: Homo sapiens, MCF7, 48 h
Jurkat [12] = assay: Effect on HDAC6 protein level in human Jurkat T cells at 0.1 to 2 uM incubated for 12 hrs by Western blot analysis; format: functional, cell-based; details: dose 0.1-2 µM
B16-F10 [13] = assay: Downregulation of PD-L1 expression level in mouse B16-F10 cells at 0.1 to 2 uM incubated for 24 hrs by Western blot analysis; format: functional, cell-based; details: dose 0.1-2 µM
Jurkat [14] = assay: cells; details: Homo sapiens, 72 h
B16-F10 [15] = assay: Downregulation of p-STAT3 expression level in mouse B16-F10 cells at 0.1 to 2 uM incubated for 24 hrs by Western blot analysis; format: functional, cell-based; details: dose 0.1-2 µM
Histone deacetylase 7 = biological target: T2, Histone deacetylase 7 (Homo sapiens, UniProt Q8WUI4); assay: Inhibition of N-terminal GST-tagged recombinant human HDAC7 (501 to 952 residues) extracted from baculovirus expression system using Ac-Leu-Gly-Lys (Tfa)-AMC as substrate preincubated for 5 mins followed by substrate addition and measured after 30 mins by fluorescence microplate reader analysis
T2 sequence (Q8WUI4 whole entry): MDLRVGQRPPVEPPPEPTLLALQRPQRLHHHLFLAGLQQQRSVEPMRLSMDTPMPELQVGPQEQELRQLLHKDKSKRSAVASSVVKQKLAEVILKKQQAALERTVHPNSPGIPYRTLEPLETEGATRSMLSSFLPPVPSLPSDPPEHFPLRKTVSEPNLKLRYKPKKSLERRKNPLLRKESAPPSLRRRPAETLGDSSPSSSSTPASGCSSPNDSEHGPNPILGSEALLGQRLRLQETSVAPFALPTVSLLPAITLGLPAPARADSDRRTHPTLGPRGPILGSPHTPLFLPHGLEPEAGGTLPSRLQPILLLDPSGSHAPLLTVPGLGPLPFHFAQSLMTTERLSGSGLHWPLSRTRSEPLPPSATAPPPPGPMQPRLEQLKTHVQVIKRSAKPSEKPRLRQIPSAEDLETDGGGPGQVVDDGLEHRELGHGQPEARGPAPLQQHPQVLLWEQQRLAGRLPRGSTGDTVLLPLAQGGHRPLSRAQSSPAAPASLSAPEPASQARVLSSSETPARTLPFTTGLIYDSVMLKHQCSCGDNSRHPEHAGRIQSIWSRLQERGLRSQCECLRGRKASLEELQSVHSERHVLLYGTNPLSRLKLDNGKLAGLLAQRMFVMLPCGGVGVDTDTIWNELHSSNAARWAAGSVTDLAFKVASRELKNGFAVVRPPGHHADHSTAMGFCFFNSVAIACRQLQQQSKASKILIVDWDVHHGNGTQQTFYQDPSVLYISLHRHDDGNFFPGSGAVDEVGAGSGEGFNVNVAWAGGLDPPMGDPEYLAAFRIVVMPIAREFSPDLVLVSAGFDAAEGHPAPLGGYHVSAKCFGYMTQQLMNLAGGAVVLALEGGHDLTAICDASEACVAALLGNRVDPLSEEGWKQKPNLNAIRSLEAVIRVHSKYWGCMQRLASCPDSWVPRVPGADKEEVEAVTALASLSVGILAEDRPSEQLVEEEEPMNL

[16] = biological target: Programmed cell death protein 1/Programmed cell death 1 ligand 1 (Homo sapiens, UniProt Q9NZQ7); assay: Inhibition of PD-1/PD-L1 (unknown origin) protein-protein interaction by HTRF assay; format: protein-complex assay
Histone deacetylase 8 = biological target: T3, Histone deacetylase 8 (Homo sapiens, UniProt Q9BY41); assay: Inhibition of C-terminal His-tagged recombinant full length human HDAC8 extracted from baculovirus infected Sf9 insect cells preincubated for 5 mins followed by substrate addition and measured after 30 mins by fluorescence microplate reader analysis
T3 sequence (Q9BY41 whole entry): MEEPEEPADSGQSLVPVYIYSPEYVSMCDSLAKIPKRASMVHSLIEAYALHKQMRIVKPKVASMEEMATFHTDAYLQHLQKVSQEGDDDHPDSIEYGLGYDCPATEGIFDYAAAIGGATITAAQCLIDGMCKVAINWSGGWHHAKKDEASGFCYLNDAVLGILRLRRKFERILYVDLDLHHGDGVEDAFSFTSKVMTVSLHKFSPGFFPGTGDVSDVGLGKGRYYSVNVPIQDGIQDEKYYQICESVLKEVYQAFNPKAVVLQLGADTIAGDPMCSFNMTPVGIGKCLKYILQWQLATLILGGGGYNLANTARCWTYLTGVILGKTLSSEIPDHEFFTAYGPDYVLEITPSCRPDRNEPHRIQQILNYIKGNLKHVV

[17] = Aqueous solubility of compound incubated for 24 hrs by miniaturized shake flask based HPLC analysis; format: physicochemical; details: buffer
Histone deacetylase 1 = Histone deacetylase 1 (Homo sapiens, UniProt Q13547); assay: Inhibition of recombinant full-length human HDAC1 (1 to 482 residues) extracted from baculovirus expression system using Ac-Leu-Gly-Lys (Ac)-AMC as substrate preincubated for 5 mins followed by substrate addition and measured after 30 mins by fluorescence microplate reader analysis
Chain of Histone deacetylase 1 (Q13547 whole entry, the tested form may be a part): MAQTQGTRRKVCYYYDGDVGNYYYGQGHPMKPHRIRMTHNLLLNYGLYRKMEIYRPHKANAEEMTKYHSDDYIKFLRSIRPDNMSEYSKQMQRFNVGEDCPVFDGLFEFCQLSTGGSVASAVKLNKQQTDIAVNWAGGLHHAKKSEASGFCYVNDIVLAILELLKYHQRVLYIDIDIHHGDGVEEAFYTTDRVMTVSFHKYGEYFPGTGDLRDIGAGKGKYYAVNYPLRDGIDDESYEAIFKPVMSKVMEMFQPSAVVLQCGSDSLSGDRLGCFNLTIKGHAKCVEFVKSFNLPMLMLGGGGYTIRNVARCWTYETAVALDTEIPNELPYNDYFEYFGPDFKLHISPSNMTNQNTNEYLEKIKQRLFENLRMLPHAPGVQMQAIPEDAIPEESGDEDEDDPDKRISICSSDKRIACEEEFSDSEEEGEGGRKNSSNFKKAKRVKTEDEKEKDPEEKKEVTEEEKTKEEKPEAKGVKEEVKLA

Chain of Programmed cell death protein 1/Programmed cell death 1 ligand 1 (Q15116 whole entry): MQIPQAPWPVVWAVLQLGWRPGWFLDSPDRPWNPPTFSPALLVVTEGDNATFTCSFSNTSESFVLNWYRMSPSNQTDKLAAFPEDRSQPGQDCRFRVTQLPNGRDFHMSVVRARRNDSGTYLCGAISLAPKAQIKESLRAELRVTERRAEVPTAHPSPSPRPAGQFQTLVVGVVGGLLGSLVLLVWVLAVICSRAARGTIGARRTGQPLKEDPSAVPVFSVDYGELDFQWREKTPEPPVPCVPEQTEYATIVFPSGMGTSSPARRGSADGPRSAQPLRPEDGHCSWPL
Chain of Programmed cell death protein 1/Programmed cell death 1 ligand 1 (Q9NZQ7 whole entry): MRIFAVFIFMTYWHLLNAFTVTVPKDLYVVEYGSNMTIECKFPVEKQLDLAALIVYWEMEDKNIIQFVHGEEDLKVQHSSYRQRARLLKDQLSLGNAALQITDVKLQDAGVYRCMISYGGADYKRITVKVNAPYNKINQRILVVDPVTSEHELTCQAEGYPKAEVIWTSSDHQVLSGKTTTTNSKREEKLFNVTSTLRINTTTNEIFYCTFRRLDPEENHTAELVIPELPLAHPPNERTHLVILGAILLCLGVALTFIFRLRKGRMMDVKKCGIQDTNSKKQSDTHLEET

SMILES	inhibition [3]	IC50 (HepG2)	IC50 (B16-F10 [11])	IC50 (MCF7)	IC50 (Jurkat [14])	IC50 (Histone deacetylase 7)	IC50 (Histone deacetylase 8)	Activity (B16-F10 [1])	inhibition in vivo at 20 mg/kg/day (B16-F10 [2])	Activity (B16-F10 [4])	inhibition in vivo at 20 mg/kg/day [5]	IC50 [16]	further results
Cc1c(COc2cc(OCc3cccc(C#N)c3)c(CNC(C)(C)C(=O)O)cc2Cl)cccc1-c1ccccc1	inactive							3.41%	43.2%	4.99%	~50%		
O=C(CCCCCCC(=O)Nc1ccccc1)NO													Activity (B16-F10 [6]): Active; Activity (Jurkat [7]): Active
O=C(CCCCCCNC(=O)c1cnc(N(c2ccccc2)c2ccccc2)nc1)NO [RICOLINOSTAT]	Active	7.9 µM	> 10 µM	8.3 µM	6.7 µM			2.62%	45.6%	1.04%	~30%		Activity (B16-F10 [8]): inactive; inhibition [9]: Dose-dependent-effect; Activity (B16-F10 [10]): inactive; Activity (Jurkat [12]): inactive; Activity (B16-F10 [13]): Active; Activity (B16-F10 [15]): Active
COc1nc(OCc2cccc(-c3ccccc3)c2C)ccc1CNCCNC(C)=O													solubility thermodynamic at 24 h [17]: 38.3 µg/mL (≈ 91.3 µM)

Further lines, with some results ahead:

inhibition [3]	IC50 (HepG2)	IC50 (B16-F10 [11])	IC50 (MCF7)	IC50 (Jurkat [14])	IC50 (Histone deacetylase 7)	IC50 (Histone deacetylase 8)	SMILES	Activity (B16-F10 [1])	inhibition in vivo at 20 mg/kg/day (B16-F10 [2])	Activity (B16-F10 [4])	inhibition in vivo at 20 mg/kg/day [5]	IC50 [16]	further results
	9.7 µM	> 10 µM	> 10 µM	> 10 µM	> 100 µM	> 10 µM	COc1nc(-c2cccc(-c3ccccc3)c2C)ccc1CNCCCCC(=O)NO					0.0792 µM	
	9.7 µM	> 10 µM	> 10 µM	> 10 µM	> 100 µM	> 10 µM	COc1nc(OCc2cccc(-c3ccccc3)c2C)ccc1CNCCCCC(=O)NO					0.1 µM	IC50 (Histone deacetylase 1): > 10 µM
